Test results published in paper PMC12337661, “PIEZO1 mechanical insensitivity in generalized lymphatic dysplasia with the potential for pharmacological rescue” (iScience, 2025).

Target: T1, R2351Q mPIEZO1 (Mus musculus, UniProt E2JF22, R2351Q)
T1 construct: expressed in transfected cells
Test: Intracellular Ca2+ measurement (fura-2), T-REx-293 cells stably transfected
Format: cell-based
Details: for Mean (Ca2+ signal time course, Figure 4f) / Mean (concentration-response, Figure 4g): R2351Q

T1 sequence (E2JF22 whole entry R2351Q): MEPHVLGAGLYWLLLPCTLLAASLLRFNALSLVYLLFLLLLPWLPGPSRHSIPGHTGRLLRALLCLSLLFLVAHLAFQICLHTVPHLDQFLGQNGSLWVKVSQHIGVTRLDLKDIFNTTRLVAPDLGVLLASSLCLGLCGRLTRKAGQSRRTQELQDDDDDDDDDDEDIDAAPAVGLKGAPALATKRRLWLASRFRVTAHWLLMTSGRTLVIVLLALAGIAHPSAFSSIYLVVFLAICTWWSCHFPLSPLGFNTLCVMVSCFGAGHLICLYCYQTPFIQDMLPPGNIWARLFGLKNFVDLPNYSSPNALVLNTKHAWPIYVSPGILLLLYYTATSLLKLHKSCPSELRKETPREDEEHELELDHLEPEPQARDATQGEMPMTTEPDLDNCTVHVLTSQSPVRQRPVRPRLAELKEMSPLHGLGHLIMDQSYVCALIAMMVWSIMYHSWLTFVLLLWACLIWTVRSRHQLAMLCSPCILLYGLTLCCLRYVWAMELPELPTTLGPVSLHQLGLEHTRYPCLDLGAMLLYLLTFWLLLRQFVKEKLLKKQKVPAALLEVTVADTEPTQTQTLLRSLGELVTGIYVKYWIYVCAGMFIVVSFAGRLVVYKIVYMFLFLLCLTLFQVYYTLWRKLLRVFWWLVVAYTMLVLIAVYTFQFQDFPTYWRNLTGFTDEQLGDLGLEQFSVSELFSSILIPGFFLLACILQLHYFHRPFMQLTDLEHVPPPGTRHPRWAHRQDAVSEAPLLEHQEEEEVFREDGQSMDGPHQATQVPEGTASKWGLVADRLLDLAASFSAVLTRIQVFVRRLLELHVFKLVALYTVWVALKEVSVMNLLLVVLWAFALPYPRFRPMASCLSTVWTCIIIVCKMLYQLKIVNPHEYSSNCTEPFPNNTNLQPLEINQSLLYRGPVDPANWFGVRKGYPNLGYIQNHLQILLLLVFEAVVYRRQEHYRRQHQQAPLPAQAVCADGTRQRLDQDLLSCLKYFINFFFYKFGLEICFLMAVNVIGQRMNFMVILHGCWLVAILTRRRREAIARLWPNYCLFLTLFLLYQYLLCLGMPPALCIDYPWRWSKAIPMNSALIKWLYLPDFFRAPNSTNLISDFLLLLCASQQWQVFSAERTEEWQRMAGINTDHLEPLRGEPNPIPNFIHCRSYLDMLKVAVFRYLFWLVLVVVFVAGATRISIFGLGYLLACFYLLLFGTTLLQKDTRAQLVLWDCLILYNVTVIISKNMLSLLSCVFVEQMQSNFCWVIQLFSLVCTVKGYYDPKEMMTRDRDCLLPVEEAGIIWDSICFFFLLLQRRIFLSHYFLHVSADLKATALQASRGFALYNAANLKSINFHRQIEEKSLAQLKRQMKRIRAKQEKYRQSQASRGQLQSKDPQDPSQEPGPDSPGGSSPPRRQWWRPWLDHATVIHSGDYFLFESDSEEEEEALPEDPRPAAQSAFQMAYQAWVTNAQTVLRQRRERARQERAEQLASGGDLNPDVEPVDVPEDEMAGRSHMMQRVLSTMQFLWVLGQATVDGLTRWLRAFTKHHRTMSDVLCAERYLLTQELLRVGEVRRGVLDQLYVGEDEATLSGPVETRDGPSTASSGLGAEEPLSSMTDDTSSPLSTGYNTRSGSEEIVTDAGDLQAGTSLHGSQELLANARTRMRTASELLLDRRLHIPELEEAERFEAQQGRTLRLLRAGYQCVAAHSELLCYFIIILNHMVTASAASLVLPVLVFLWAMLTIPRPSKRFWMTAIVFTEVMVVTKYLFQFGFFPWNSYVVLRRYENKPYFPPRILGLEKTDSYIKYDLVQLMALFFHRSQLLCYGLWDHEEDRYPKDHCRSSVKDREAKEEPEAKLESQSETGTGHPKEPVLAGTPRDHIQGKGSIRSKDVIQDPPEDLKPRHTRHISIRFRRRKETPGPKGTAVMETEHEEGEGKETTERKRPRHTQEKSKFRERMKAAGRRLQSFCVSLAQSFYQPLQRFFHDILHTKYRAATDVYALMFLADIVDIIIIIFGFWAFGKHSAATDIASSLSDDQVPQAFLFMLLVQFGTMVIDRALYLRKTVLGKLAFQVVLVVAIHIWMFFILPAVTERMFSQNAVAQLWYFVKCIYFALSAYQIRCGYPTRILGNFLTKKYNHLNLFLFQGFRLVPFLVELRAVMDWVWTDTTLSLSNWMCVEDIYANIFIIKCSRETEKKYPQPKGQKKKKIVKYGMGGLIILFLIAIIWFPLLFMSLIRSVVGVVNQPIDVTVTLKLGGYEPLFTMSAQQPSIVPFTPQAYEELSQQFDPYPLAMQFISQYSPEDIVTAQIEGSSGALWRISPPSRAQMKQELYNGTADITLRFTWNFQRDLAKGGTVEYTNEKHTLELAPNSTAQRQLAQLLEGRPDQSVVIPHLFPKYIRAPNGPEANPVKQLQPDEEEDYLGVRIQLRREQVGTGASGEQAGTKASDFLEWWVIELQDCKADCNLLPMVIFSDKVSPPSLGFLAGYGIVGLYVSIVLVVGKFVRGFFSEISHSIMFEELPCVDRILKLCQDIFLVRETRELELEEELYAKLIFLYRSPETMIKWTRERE

Q: With `O=C(O)c1ccc(-c2cnc(SCc3c(Cl)cccc3Cl)s2)cc1` [Yoda2b, 4-(2-([(2,6-Dichlorophenyl)methyl]sulfanyl)-1,3-thiazol-5-yl)benzoic acid] as the compound, how does the “Mean (Ca2+ signal time course, Figure 4f)” value (0.3 µM, time 0 s) read?
A: -0.00345

Q: What about the “Mean (Ca2+ signal time course, Figure 4f)” value (0.3 µM, time 5 s) of the same compound?
A: -0.00122

Q: And the “Mean (Ca2+ signal time course, Figure 4f)” value (0.3 µM, time 10 s)?
A: 0.01286

Q: And the “Mean (Ca2+ signal time course, Figure 4f)” value (0.3 µM, time 15 s)?
A: 0.00659

Q: And the “Mean (Ca2+ signal time course, Figure 4f)” value (0.3 µM, time 20 s)?
A: -0.0106

Q: And the “Mean (Ca2+ signal time course, Figure 4f)” value (0.3 µM, time 25 s)?
A: -0.00417

Q: What about the “Mean (Ca2+ signal time course, Figure 4f)” value (0.3 µM, time 30 s) of the same compound?
A: -0.1638

Q: And the “Mean (Ca2+ signal time course, Figure 4f)” value (0.3 µM, time 35 s)?
A: -0.1525

Q: What about the “Mean (Ca2+ signal time course, Figure 4f)” value (0.3 µM, time 40 s) of the same compound?
A: 0.1031

Q: What about the “Mean (Ca2+ signal time course, Figure 4f)” value (0.3 µM, time 45 s) of the same compound?
A: 0.1823

Q: And the “Mean (Ca2+ signal time course, Figure 4f)” value (0.3 µM, time 50 s)?
A: 0.2367

Q: What about the “Mean (Ca2+ signal time course, Figure 4f)” value (0.3 µM, time 55 s) of the same compound?
A: 0.2605

Q: And the “Mean (Ca2+ signal time course, Figure 4f)” value (0.3 µM, time 60 s)?
A: 0.2818

Q: What about the “Mean (Ca2+ signal time course, Figure 4f)” value (0.3 µM, time 65 s) of the same compound?
A: 0.2859

Q: What about the “Mean (Ca2+ signal time course, Figure 4f)” value (0.3 µM, time 70 s) of the same compound?
A: 0.3055

Q: And the “Mean (Ca2+ signal time course, Figure 4f)” value (0.3 µM, time 75 s)?
A: 0.2731

Q: And the “Mean (Ca2+ signal time course, Figure 4f)” value (0.3 µM, time 80 s)?
A: 0.2811

Q: And the “Mean (Ca2+ signal time course, Figure 4f)” value (0.3 µM, time 85 s)?
A: 0.2788

Q: And the “Mean (Ca2+ signal time course, Figure 4f)” value (0.3 µM, time 90 s)?
A: 0.2616

Q: And the “Mean (Ca2+ signal time course, Figure 4f)” value (0.3 µM, time 95 s)?
A: 0.2726

Q: What about the “Mean (Ca2+ signal time course, Figure 4f)” value (0.3 µM, time 100 s) of the same compound?
A: 0.2623

Q: What about the “Mean (Ca2+ signal time course, Figure 4f)” value (0.3 µM, time 105 s) of the same compound?
A: 0.2451

Q: What about the “Mean (Ca2+ signal time course, Figure 4f)” value (0.3 µM, time 110 s) of the same compound?
A: 0.2677

Q: What about the “Mean (Ca2+ signal time course, Figure 4f)” value (0.3 µM, time 115 s) of the same compound?
A: 0.2432

Q: What about the “Mean (Ca2+ signal time course, Figure 4f)” value (0.3 µM, time 120 s) of the same compound?
A: 0.2668

Q: What about the “Mean (Ca2+ signal time course, Figure 4f)” value (0.3 µM, time 125 s) of the same compound?
A: 0.2392

Q: And the “Mean (Ca2+ signal time course, Figure 4f)” value (0.3 µM, time 130 s)?
A: 0.2157

Q: And the “Mean (Ca2+ signal time course, Figure 4f)” value (3 µM, time 0 s)?
A: -0.0127

Q: What about the “Mean (Ca2+ signal time course, Figure 4f)” value (3 µM, time 5 s) of the same compound?
A: -0.01559

Q: And the “Mean (Ca2+ signal time course, Figure 4f)” value (3 µM, time 10 s)?
A: 0.01198

Q: What about the “Mean (Ca2+ signal time course, Figure 4f)” value (3 µM, time 15 s) of the same compound?
A: 0.01352

Q: And the “Mean (Ca2+ signal time course, Figure 4f)” value (3 µM, time 20 s)?
A: 7.66E-04

Q: What about the “Mean (Ca2+ signal time course, Figure 4f)” value (3 µM, time 25 s) of the same compound?
A: 0.00202

Q: What about the “Mean (Ca2+ signal time course, Figure 4f)” value (3 µM, time 30 s) of the same compound?
A: -0.4931

Q: And the “Mean (Ca2+ signal time course, Figure 4f)” value (3 µM, time 35 s)?
A: -0.08324

Q: What about the “Mean (Ca2+ signal time course, Figure 4f)” value (3 µM, time 40 s) of the same compound?
A: 0.5902

Q: And the “Mean (Ca2+ signal time course, Figure 4f)” value (3 µM, time 45 s)?
A: 0.919

Q: What about the “Mean (Ca2+ signal time course, Figure 4f)” value (3 µM, time 50 s) of the same compound?
A: 1.153

Q: And the “Mean (Ca2+ signal time course, Figure 4f)” value (3 µM, time 55 s)?
A: 1.288

Q: What about the “Mean (Ca2+ signal time course, Figure 4f)” value (3 µM, time 60 s) of the same compound?
A: 1.4

Q: And the “Mean (Ca2+ signal time course, Figure 4f)” value (3 µM, time 65 s)?
A: 1.461

Q: What about the “Mean (Ca2+ signal time course, Figure 4f)” value (3 µM, time 70 s) of the same compound?
A: 1.455

Q: What about the “Mean (Ca2+ signal time course, Figure 4f)” value (3 µM, time 75 s) of the same compound?
A: 1.399

Q: What about the “Mean (Ca2+ signal time course, Figure 4f)” value (3 µM, time 80 s) of the same compound?
A: 1.41

Q: And the “Mean (Ca2+ signal time course, Figure 4f)” value (3 µM, time 85 s)?
A: 1.397

Q: And the “Mean (Ca2+ signal time course, Figure 4f)” value (3 µM, time 90 s)?
A: 1.327

Q: What about the “Mean (Ca2+ signal time course, Figure 4f)” value (3 µM, time 95 s) of the same compound?
A: 1.295

Q: What about the “Mean (Ca2+ signal time course, Figure 4f)” value (3 µM, time 100 s) of the same compound?
A: 1.247

Q: What about the “Mean (Ca2+ signal time course, Figure 4f)” value (3 µM, time 105 s) of the same compound?
A: 1.236

Q: What about the “Mean (Ca2+ signal time course, Figure 4f)” value (3 µM, time 110 s) of the same compound?
A: 1.129

Q: And the “Mean (Ca2+ signal time course, Figure 4f)” value (3 µM, time 115 s)?
A: 1.087

Q: And the “Mean (Ca2+ signal time course, Figure 4f)” value (3 µM, time 120 s)?
A: 1.099

Q: And the “Mean (Ca2+ signal time course, Figure 4f)” value (3 µM, time 125 s)?
A: 1.0906

Q: What about the “Mean (Ca2+ signal time course, Figure 4f)” value (3 µM, time 130 s) of the same compound?
A: 0.9817

Q: What about the “Mean (concentration-response, Figure 4g)” value (Yoda2b concentration 0.01 µM) of the same compound?
A: 6.31E-04

Q: And the “Mean (concentration-response, Figure 4g)” value (Yoda2b concentration 0.03 µM)?
A: 0.01052

Q: What about the “Mean (concentration-response, Figure 4g)” value (Yoda2b concentration 0.1 µM) of the same compound?
A: 0.03752

Q: And the “Mean (concentration-response, Figure 4g)” value (Yoda2b concentration 0.3 µM)?
A: 0.1939

Q: And the “Mean (concentration-response, Figure 4g)” value (Yoda2b concentration 1 µM)?
A: 0.4898

Q: What about the “Mean (concentration-response, Figure 4g)” value (Yoda2b concentration 3 µM) of the same compound?
A: 0.7217

Q: What about the “Mean (concentration-response, Figure 4g)” value (Yoda2b concentration 10 µM) of the same compound?
A: 0.9598

Q: What about the “channel activation compared with Yoda1” value (side-by-side, same 96-well plate) of the same compound?
A: more potently activated by Yoda2b
